The results in this text go back to ChEMBL document CHEMBL1764972, “Phomalevones A-C: dimeric and pseudodimeric polyketides from a fungicolous Hawaiian isolate of Phoma sp. (Cucurbitariaceae)” (J Nat Prod, 2011).

The test system of assay [1] is Bacillus subtilis. Nature of the assay: Antibacterial activity against Bacillus subtilis ATCC 6051 at 100 ug/disk by agar disk diffusion assay. Particulars: read-out: IZ. It is filed as functional.
The subject of assay [2] is Staphylococcus aureus. Nature of the assay: Antibacterial activity against Staphylococcus aureus ATCC 29213 at 100 ug/disk by agar disk diffusion assay. It is filed as functional. Particulars: read-out: IZ. (In general: In agar diffusion tests the substance spreads into inoculated agar from a disc or well.)
The test system of assay [3] is Bacillus subtilis. Nature of the assay: Antibacterial activity against Bacillus subtilis ATCC 6051 at 25 ug/disk by agar disk diffusion assay. In kind it is functional, organism-based.
Assay [4] has as its system Staphylococcus aureus. Nature of the assay: Antibacterial activity against Staphylococcus aureus ATCC 29213 at 25 ug/disk by agar disk diffusion assay. It is filed as functional, organism-based.
The test system of assay [5] is Aspergillus flavus. Nature of the assay: Antifungal activity against Aspergillus flavus NRRL 6541 at 200 ug/disk by agar disk diffusion assay. It is filed as functional. Particulars: read-out: IZ.
Assay [6] relates to Fusarium verticillioides. Nature of the assay: Antifungal activity against Gibberella moniliformis NRRL 25457 at 200 ug/disk by agar disk diffusion assay. It is filed as functional. Particulars: read-out: IZ.
Assay [7] deals with Fusarium verticillioides. Nature of the assay: Antifungal activity against Gibberella moniliformis NRRL 25457 by agar disk diffusion assay. In kind it is functional, organism-based.
The subject of assay [8] is Aspergillus flavus. Nature of the assay: Antifungal activity against Aspergillus flavus NRRL 6541 up to 25 ug/ml by agar disk diffusion assay. In kind it is functional, organism-based.
Assay [9] deals with Aspergillus flavus. Briefly: Antifungal activity against Aspergillus flavus NRRL 6541 by agar disk diffusion assay. It is filed as functional, organism-based.
The next assay relates to Candida albicans. Nature of the assay: Antimicrobial activity against Candida albicans ATCC 14053 at 100 ug/disk by agar disk diffusion assay. It is filed as functional. Particulars: read-out: IZ.
Another assay has as its system Escherichia coli. Nature of the assay: Antibacterial activity against Escherichia coli ATCC 25922 at 100 ug/disk by agar disk diffusion assay. Particulars: read-out: IZ. In kind it is functional.

Converted amounts (≈) assume the structure as drawn. The source made the active and inactive calls. The calls are words filed in the database; no cut-off is given here.

Turning to `Cc1cc2c(c(O)c1-c1c(C)cc3c(c1O)C(=O)C1=C(O)C=C[C@H](O)[C@]1(C)O3)C(=O)C1=C(O)C=C[C@H](O)[C@]1(C)O2` [PHOMALEVONE A], the zone of inhibition at 100 µg/disc was found to be 36 mm with Bacillus subtilis [1] and 23 mm in the assay on Staphylococcus aureus [2].
As to GENTAMICIN SULFATE, the inhibition zone (IZ) with Bacillus subtilis [3] and in the assay on Staphylococcus aureus [4] was 20 mm each time.
The MIC is the lowest concentration that inhibits growth of the organism. Read a low MIC as inhibition by little substance. What is called IC50 is the concentration that gives 50% inhibition. Low readings indicate inhibition by little substance, high ones a need for much substance. On to `Cc1cc2c(c(O)c1-c1c(C)cc3c(c1O)C(=O)C1=C(O)C=C[C@H](O)[C@]1(C)O3)C(=O)C1=C(O)C=CC(=O)[C@]1(C)O2` [PHOMALEVONE C], for which the zone of inhibition at 100 µg/disc in the assay with Bacillus subtilis [1] was 34 mm; with Staphylococcus aureus [2] it was 22 mm. Besides, the zone of inhibition at 200 µg/disc in the assay with Aspergillus flavus [5] and with Fusarium verticillioides [6] was 10 mm each time. Besides, 10 µg/mL (≈ 18.4 µM) was the least that counted as inhibitory in the assay with Fusarium verticillioides [7] (MIC). The result in the assay with Aspergillus flavus [8] was inactive. Also, the IC50 in the assay on Aspergillus flavus [9] was 4 µg/mL (≈ 7.35 µM).
As for NYSTATIN, the MIC with Fusarium verticillioides [7] and in the assay with Aspergillus flavus [9] was 10 µg/mL each time.
In the case of `Cc1cc(O)c(C(=O)c2c(O)ccc(O)c2C)c(O)c1-c1c(C)cc(O)c(C(=O)c2c(O)ccc(O)c2C)c1O` [PHOMALEVONE B], the zone of inhibition at 100 µg/disc in the assay on Bacillus subtilis [1] came out at 38 mm; in the assay with Staphylococcus aureus [2] it was 26 mm; in the assay with Candida albicans, 18 mm; in the assay on Escherichia coli it was 18 mm.
